In ChEMBL document CHEMBL4184193, “Design, synthesis, and opioid activity of arodyn analogs cyclized by ring-closing metathesis involving Tyr(allyl)” (Bioorg Med Chem, 2018):
Where a SMILES comes first, the peptide text is derived from it. [ ]: non-standard residue; d: D form.

How the values were obtained:
[1] = biological target: Delta-type opioid receptor (Rattus norvegicus, UniProt P33533); experiment: Displacement of [3H]DPDPE from rat delta opioid receptor expressed in CHO cells after 90 mins by scintillation counting analysis; format: cell-based
[2] = biological target: Kappa-type opioid receptor (Rattus norvegicus) (UniProt P34975); experiment: Antagonist activity at rat kappa opioid receptor expressed in CHO cell membranes assessed as inhibition of Dyn A-(1-13)NH2-induced [35S]GTPgammaS binding by schild analysis; format: functional
[3] = biological target: Kappa-type opioid receptor (Rattus norvegicus) (UniProt P34975); experiment: Antagonist activity at rat kappa opioid receptor expressed in CHO cell membranes assessed as inhibition of Dyn A-(1-13)NH2-induced [35S]GTPgammaS binding at 10 uM relative to control; format: functional

Kappa-type opioid receptor (Rattus norvegicus), sequence (P34975 whole entry): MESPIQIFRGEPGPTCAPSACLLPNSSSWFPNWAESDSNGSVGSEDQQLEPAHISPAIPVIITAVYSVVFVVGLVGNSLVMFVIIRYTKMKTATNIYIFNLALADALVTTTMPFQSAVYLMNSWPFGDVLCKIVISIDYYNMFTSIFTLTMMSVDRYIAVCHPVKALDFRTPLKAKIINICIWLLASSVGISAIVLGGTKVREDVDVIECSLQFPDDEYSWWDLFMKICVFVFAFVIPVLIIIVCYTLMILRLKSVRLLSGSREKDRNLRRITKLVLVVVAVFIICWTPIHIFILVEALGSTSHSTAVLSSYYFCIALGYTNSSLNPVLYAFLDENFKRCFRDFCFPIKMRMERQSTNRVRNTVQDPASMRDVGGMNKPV
Delta-type opioid receptor, sequence (P33533 whole entry): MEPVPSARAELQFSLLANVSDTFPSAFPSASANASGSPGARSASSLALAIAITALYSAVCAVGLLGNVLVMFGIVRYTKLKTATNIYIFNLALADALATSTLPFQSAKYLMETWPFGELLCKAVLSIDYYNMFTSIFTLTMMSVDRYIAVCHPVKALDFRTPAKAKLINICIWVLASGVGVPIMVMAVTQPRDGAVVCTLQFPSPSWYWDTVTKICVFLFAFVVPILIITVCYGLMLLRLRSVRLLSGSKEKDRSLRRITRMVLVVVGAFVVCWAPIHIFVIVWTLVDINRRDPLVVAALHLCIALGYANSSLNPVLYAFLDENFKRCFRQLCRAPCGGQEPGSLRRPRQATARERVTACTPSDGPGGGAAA

**Q.** `CC(=O)N[C@@H](Cc1ccccc1)C(=O)N[C@@H](Cc1ccccc1)C(=O)N[C@@H](Cc1ccccc1)C(=O)N[C@@H](CCCNC(=N)N)C(=O)N[C@@H](CC(C)C)C(=O)N[C@@H](CCCNC(=N)N)C(=O)N[C@@H](CCCNC(=N)N)C(=O)N[C@H](C)C(=O)N[C@@H](CCCNC(=N)N)C(=O)N1CCC[C@H]1C(=O)N[C@@H](CCCCN)C(N)=O` (Ac-FFFRLRR[dA]RPK-NH2) was tested. Which Ki [1] did it give?
**A.** Its Ki is > 5000 nM.

**Q.** How did the Kb [2] turn out when `CC(=O)N[C@@H](Cc1ccccc1)C(=O)N[C@@H](Cc1ccccc1)C(=O)N[C@@H](Cc1ccccc1)C(=O)N[C@@H](CCCN=C(N)N)C(=O)N[C@@H](CC(C)C)C(=O)N[C@@H](CCCN=C(N)N)C(=O)N[C@@H](CCCN=C(N)N)C(=O)N[C@@H](C)C(=O)N[C@@H](CCCN=C(N)N)C(=O)N1CCC[C@H]1C(=O)N[C@@H](CCCCN)C(N)=O` (Ac-FFFRLRRARPK-NH2) was run?
**A.** The Kb was 17 nM.

**Q.** For `CC[C@H](C)[C@H](NC(=O)[C@H](CCCNC(=N)N)NC(=O)[C@@H]1C/C=C/COc2ccc(cc2)C[C@H](NC(=O)[C@H](Cc2ccccc2)NC(=O)[C@H](Cc2ccccc2)NC(C)=O)C(=O)N[C@@H](CCCNC(=N)N)C(=O)N1)C(=O)N[C@@H](CCCNC(=N)N)C(=O)N1CCC[C@H]1C(=O)N[C@@H](CCCCN)C(N)=O`, which inhibition [3] is on record?
**A.** The inhibition was 3.3%.
